Laboratory results reported in patent EP1121937A1, “VACCINE PR[…]” (THE KITASATO INSTITUTE, priority 1998, dated 2000).
Entries after “also recorded” stand apart in the source; their conditions may differ.

Legend:
[1] = test system: pertussis-diphtheria-tetanus combined vaccine; parameters: species or system BALB/c mice; conditions: mouse, in vivo
[2] = test system: influenza HA vaccine (A/PR/8/34 strain); parameters: species or system BALB/c mice; conditions: mouse, in vivo
sheep erythrocytes = test: Hemolytic test for active saponins (Example 6); type: cell-based; conditions: 30 minutes at room temperature, solutions 3.125 to 200 µg/ml in PBS, E and F judged at a final concentration of 200 µg/ml
Procedure: It has been known that saponins generally have the hemolytic activity. Thus, the inventive active saponins were tested for the hemolytic activity as follows. The sheep erythrocytes were washed 3 times with phosphate buffered saline (PBS), and then diluted 2.5 times with the same buffer for the subsequent experiment. Aliquots (100 µl ) of solutions of onjisaponins A, E, F, and G (200, 100, 50, 25, 6.25, 3.125 µg/ml-PBS solution) were added to V-shaped wells of a 96-well micro-plate, and 25 µl of sheep erythrocyte suspension was added to each well. The plate was allowed to stand still at room temperature for 30 minutes. Then, the samples were centrifuged at 1000 rpm for 5 minutes. An aliquot (50 µl) of the resulting supernatant was transferred to a flat-bottomed well of a plate and the absorbance thereof was measured at 490 nm in a micro-plate reader (Model 450, BioRad Co.). The hemolytic activity of test compound was evaluated based on the increase in absorbance at 490 nm, which results from the release of hemoglobin from sheep erythrocytes.

[3] = test system: pertussis-diphtheria-tetanus combined vaccine; parameters: species or system BALB/c mice; conditions: mouse, in vivo; remark: listed apart in the source
[4] = test system: influenza HA vaccine (A/Beijing/262/95 strain); parameters: species or system BALB/c mice; conditions: mouse, in vivo
[5] = test system: influenza HA vaccine (A/Beijing/262/95 strain); type: in vivo, BALB/c mice
[6] = background art; cited from earlier work
cellular immunity = conditions: background art; cited from earlier work

Substance | titer of anti-DT-IgG antibody in the serum [1] | titer of anti-PT-IgG antibody in the serum [1] | titer of anti-TT-IgG antibody in the serum [1] | titers of anti-PT-IgG, anti-DT-IgG and anti-TT-IgG antibodies in the serum compared with the group given vaccine and CTB [1] | anti-HA-IgA and IgG antibody titers in the nasal irrigation liquid compared with the group given vaccine in combination with CTB [2] | anti-HA-IgA antibody titer in the nasal irrigation liquid [2] | anti-HA-IgG antibody titer in the nasal irrigation liquid [2] | hemolytic activity (release of hemoglobin, absorbance at 490 nm) (sheep erythrocytes) | titer of anti-DT-IgA antibody in the nasal irrigation liquid [3] | titer of anti-PT-IgA antibody in the nasal irrigation liquid [3] | titer of anti-TT-IgA antibody in the nasal irrigation liquid [3] | titers of anti-PT-IgA, anti-DT-IgA and anti-TT-IgA antibodies in the nasal irrigation liquid compared with the group given vaccine and CTB [3] | HI antibody titer in the serum compared with HA vaccine alone [4] | adjuvant activity (serum HI antibody titer) compared with the same amount of CTB [4] | adjuvant activity of enhancing the titer of anti-HA-IgA antibody compared with the same amount of CTB ([5]; mouse, in vivo) | anti-HA-IgA antibody titer in the nasal irrigation liquid ([5]; secondary response, […]) | anti-HA-IgG antibody titer in the nasal irrigation liquid ([5]; secondary response, […]) | solubility [6] | induction of cellular immunity (cellular immunity)
onjisaponin A | increased to highest levels | increased to highest levels | increased to highest levels | comparable | comparable | increased to the highest level | increased to the highest level | not acceptable; also recorded: hemolysis clearly occurred | increased to highest levels | increased to highest levels | increased to highest levels | comparable |  |  |  |  |  |  | 
onjisaponin F | also elevated | also elevated | also elevated |  |  | increased the production | increased the production | substantially no hemolytic activity; also recorded: low hemolytic activity; also recorded: hardly recognized | increased to highest levels | increased to highest levels | increased to highest levels | comparable | significantly increased | slightly weaker | lower | significantly increased | significantly increased |  | 
onjisaponin G | increased only anti-TT-IgG antibody titer | increased only anti-TT-IgG antibody titer | increased only anti-TT-IgG antibody titer to a statistically significant level |  |  | increased only the production of anti-HA-IgA to a statistically significant level | increased only the production of anti-HA-IgA | low hemolytic activity; also recorded: moderate degree of hemolysis | also elevated |  | also elevated |  |  |  |  |  |  |  | 
QS-21 |  |  |  |  |  |  |  |  |  |  |  |  |  |  |  |  |  | too low | strongly induces the cellular immunity
onjisaponin E |  |  |  |  |  | increased only the production of anti-HA-IgA to a statistically significant level | increased only the production of anti-HA-IgA | substantially no hemolytic activity; also recorded: low hemolytic activity; also recorded: hardly recognized |  |  |  |  |  |  |  |  |  |  | 
